{"source": "patent US8258154B2", "about": "“Bicyclic heteroaryl inhibitors of PDE4” (Kalypsys Inc., priority 2006, dated 2012)", "test_system": "Lacrimal gland inflammation-induced dry eye", "test": "Lacrimal gland inflammation-induced dry eye in rabbits (corneal staining, tear breakup time)", "format": "in vivo", "conditions": "rabbit, topical ocular BID, percent concentration 1", "from_the_text": "A more detailed description of the assay used herein may be found in Naglehout, T J et al. 2005, “Preservation of Tear Film Integrity and Inhibition of Corneal Injury by Dexamethasone in a Rabbit Model of Lacrimal Gland Inflammation-Induced Dry Eye,” J. Ocular Pharm. Ther., 21:2. 139-148, the disclosure of which is hereby incorporated by reference as if written herein in its entirety. Rabbits (n=4/group) were randomized into treatment groups and dosed topically BID with maxidex vehicle or test drug beginning one day prior to initiation of dry eye. Each rabbit received bilateral lacrimal gland injections of saline or ConA (300 μg/30 μl) and topical ocular dosing was continued BID throughout the study. Desiccation was initiated 1-2 hours following lacrimal gland injection by placing conscious rabbits in the environmental chamber (10-15% humidity/72° F.). […] Absorbance of the extracted dye was determined at 660 nm. TBUT was quantified in a separate group of treated animals. TBUT was determined by instilling 5 μL sodium fluorescein into the cul de sac and manually blinking the lids to distribute the fluorescein within the tear film. Under slit lamp observation, the eye was held open and the time whereby one or more black spots or streaks appeared in the precorneal tear film was recorded. […]", "data": [{"smiles": "COc1ccc2c(Nc3c(Cl)cncc3Cl)cc(=O)[nH]c2c1OC1CCCC1", "note": "[Example 1, 8-(Cyclopentyloxy)-4-(3,5-dichloropyridin-4-ylamino)-7-methoxyquinolin-2(1H)-one]", "values": [{"measurement": "Activity at Percent Concentration Tested 1", "result": "Inac-"}]}]}
